Data from US20110263694A1, “Use of Xanthone Derivatives as a Medicament for Cancer” (MUSEUM NATIONAL D'HISTOIRE NATURELLE, priority 2008, published 2011).
pIC50: −log10 of the molar value.

What was measured:
normal PBMC = assay: MTT cytotoxicity on normal PBMC; assay type: cell-based, human; conditions: 5 or 10 μg/ml, 48 hours; FIG. 5B
Procedure: (§1) FIG. 5: The effect of the compounds M1, M2, M4, M5 and M6 on the viability and apoptosis of normal lymphocytes was evaluated as indicated in the Examples section. A/ PBMC isolated from the blood of normal volunteers were incubated at 2×10^6/ml for 48 hours in the presence of medium alone (grey bar) or containing 1 μg/ml (black bar) or 10 μg/ml (slashed bars) of the different compounds. At the end of the incubation time, the percentage of enrichment in cytoplasmic nucleosomes was evaluated as indicated in the Examples Section. PBMC (A) and purified B lymphocytes (C) from normal blood donors were incubated for 48 hours with medium alone (grey bar) or containing 5 μg/ml (black bar) or 10 μg/ml (slashed bar) of the selected reagents M1, M2, M4 and M6. Viability was estimated after labelling the cells with a 5 hours pulse of MTT and determination of the absorbance at 540 nm as indicated in the Examples Section.
(§2) Leukemia cells from B-CLL patients were adjusted at 2×10^6/ml and 200 μl aliquots were distributed in triplicate samples in the wells of a 96-well microtitration plate and cultured in the absence or presence of the various reagents. After 18 hours of incubation at 37° C. in a humidified atmosphere containing 5% CO2, 20 μl of a 5 mg/ml solution of MTT (Sigma, St Louis, Mo., USA) were added to the wells for an additional 6 hours incubation. The microplates were centrifuged at 400×g for 20 min, the supernatants carefully discarded and 200 μl of DMSO were added to the wells to dissolve the precipitates of formazan. The optical density was measured with the use of a microplate reader (Victor-2, Wallac, Perkin Elmer, Norwalk, Mont., USA) at the wavelength of 540 nm.
(§3) Blood samples from healthy donors were obtained from the Institut Francais du Sang as residues from platelet preparations. The healthy blood donors were under 60 years old, according to the French legislation, and therefore they could not be exactly age-matched with the B-CLL patients. PBMC were prepared as described elsewhere (Zhao et al, Blood 1998; 92: 1031-1043) and normal B-lymphocytes were purified by positive selection on anti-CD19-coated magnetic beads according to the specifications of the manufacturer (Dynal, Oslo, Norway) (Kern et al, Blood 2004; 103: 679-688). Their purity usually ranged from 92% to 95%, as estimated by labelling with an anti-CD20-phycoerythrin (PE) antibody, and monocyte contamination never exceeded 2% (Kern et al, Blood 2004; 103: 679-688).

ESKOL cells [1] = assay: Annexin V-FITC labelling of ESKOL cells (phosphatidylserine externalisation, flow cytometry); assay type: cell-based, human; conditions: 1 μg/ml, 24 hours; for % Annexin V+ cells: ESKOL cells, after subtraction of control value
Text: The induction of apoptosis was further confirmed by assessing the percentage of cells expressing phosphatidylserine at the outer leaflet of the plasma membrane by flow cytometry.
The phosphatidylserine (PS) externalisation, a membrane marker of cells undergoing apoptosis, was quantified by specific binding of FITC-conjugated annexin V (Bender Medsystems, Vienna, Austria), with or without simultaneous labelling with propidium iodide (PI), according to a modification of the technique described by Koopman (Koopman et al, Blood 1994; 84:1415-1420). The percentages of annexin V-FITC positive and PI negative cells were determined by cytometry on an EPICS Altra flow cytometer (Beckman Coulter).
The ESKOL cells (10^6/ml) were cultured in the absence (C=control) or the presence of 1 μg/ml of the various Allanblackia molecules. After 24 hours of incubation, the percentage of cells labelled with Annexin V-FITC was measured by flow cytometry as previously indicated. Results are expressed after subtraction of the value for control unstimulated cells. P values were estimated by Kolmogorov-Smirnov analysis using the Statview software.

B-CLL cells = assay: MTT viability of freshly isolated B-CLL cells; assay type: cell-based, human; conditions: FIG. 3, 6 B-CLL patients
Procedure: FIG. 3: The effect of the molecules M1, M2, M4, M5 and M6 on the viability of B-CLL cells was determined. Tumour cells freshly isolated from B-CLL patients were suspended at 2×10^6/ml in complete RPMI-1640 medium and incubated for 48 hours in the presence or absence of either 1 μg/ml (black bars) or 10 μg/ml (gray bars) of the various molecules. MTT was incorporated into the cells during the last 5 hours of incubation and the viability was measured by recording the formation of the formazan precipitate as described in the Examples section. The results are expressed as the percentage of the viability of the treated cells in comparison with control cells incubated with medium alone taken as 100% and represent the mean±SE of 6 B-CLL patients.
Blood samples from B-CLL patients were obtained from the Haematology Department of Hôtel-Dieu hospital (Paris, France) after written informed consent, in accordance with the rules and tenets of the revised Helsinki protocol. Diagnosis was established according to standard clinical and international CLL workshop criteria, including lymphocyte morphology and co-expression of CD5, CD20 and CD23 antigens. A total of 12 patients (6 men and 6 women) with an age ranging 50-84 years (mean±SD: 68±8.8 years) were selected and the time since diagnosis varied between 0 (newly diagnosed patients) and 10 years. The patients were randomly chosen for each type of experiment inasmuch as CD38 and ZAP-70 expression, cytogenetic analysis and mutational VH status were only available for a fraction of them, thus hampering a risk-group analysis. The leukemia B-cells were isolated with purity greater than 96%, as previously described (Zhao et al, Blood 1998; 92: 1031-1043). All the experiments were performed with freshly purified B-CLL leukemia cells.
M1, M2, M4, M5 and M6 were thus tested for their possible action on the viability of these leukemia cells by the MTT assay that relies on the integrity of the mitochondrial succinyl dehydrogenase.
as §2

purified B-lymphocytes = assay: MTT cytotoxicity on purified normal B-lymphocytes; assay type: cell-based, human; conditions: 5 or 10 μg/ml, 48 hours; FIG. 5C
Procedure: as §1, §2, §3

ESKOL cells [2] = assay: Antiproliferative effect on ESKOL cells (viable cell count, Coulter counter); assay type: cell-based, human; conditions: 1 and 10 μg/ml; 1, 2 or 4 days; FIGS. 1A and 1B
Procedure: FIG. 1: The antiproliferative effects of M1, M2, M4, M5 and M6 were compared as indicated in the Examples Section on ESKOL cells. ESKOL cells were seeded at 2×10^5 cells/ml in the wells of micro-titration plate in the presence or absence (medium alone: ◯, DMSO: […]) of M1 (□), M2 (▪), M4 (▴), M5 ([…]), M6 (◯) at the concentrations of 1 μg/ml (A) and 10 μg/ml (B). After various times of incubation (1, 2 or 4 days), aliquots were harvested and the concentration of viable cells was measured in a Coulter counter as indicated in the examples.
The anti-proliferative effects of the isolated molecules were investigated on the ESKOL cell line derived from a hairy cell leukemia patient, a chronic B cell malignancy (Harvey et al, Leuk Res. 1991; 15: 733-744).
Cells were routinely cultured at seeding densities of 2×10^6 cells/ml in RPMI-1640 medium supplemented with 2 mM glutamine, 1 mM sodium pyruvate, 100 IU/ml penicillin, 100 μg/ml streptomycin and 10% FCS (PAA Laboratories, Pasching, Austria) and cultures were performed at 37° C. in an humidified atmosphere containing 5% CO2.
For the assay, ESKOL cells were seeded at 2×10^5/ml in 24-well microtitration plate, together with two concentrations (1 and 10 μg/ml) of the […] xanthones or 1% DMSO (solvent) as control. After 1, 2 and 4 days of culture, aliquots of cells were collected and the cell concentration was evaluated by counting the number of viable cells with a Coulter Multisizer counter Z2 (Coultronics, Margency, France) allowing the discrimination between viable and dead cells and debris according to size distribution.
Cells were cultured in duplicates or triplicates and each experiment repeated 2 to 5 times.

ESKOL cells [3] = assay: Enrichment in cytoplasmic nucleosomes (DNA cleavage) in ESKOL cells; assay type: cell-based, human; conditions: 2 days, 1 or 10 μg/ml; FIG. 2B
Procedure: B/ The percentage of enrichment in cytoplasmic nucleosomes was evaluated simultaneously as a surrogate for DNA cleavage.
The detection of cytoplasmic histone-associated DNA fragments (mono- and oligonucleosomes) was performed in cell lysates from aliquots of 20,000 cells using an ELISA with anti-histone and anti-DNA fragment mAbs (Cell Death Detection ELISA^PLUS, Roche Diagnostics, Indianapolis, Ind., USA) as previously described (Billard et al, Leuk Lymphoma 2002; 43: 1991-2002).

Plasmodium = conditions: literature; cited from earlier work
[4] = test system: human A375 melanoma cell line; conditions: Azebaze et al 2006; cited from earlier work
[5] = test system: SK-OV3 ovarian cancer cells; conditions: Lee et al 2005, read-out: IC50 cytotoxic activity; cited from earlier work
[6] = test system: human A549 lung cancer cells; conditions: Lee et al 2005, read-out: IC50 cytotoxic activity; cited from earlier work
histamine H1 receptor = conditions: Chairungsrilerd et al 1996; cited from earlier work
[7] = test system: human colon cancer DLD-1 cells; conditions: Matsumoto 2005; cited from earlier work
[8] = test system: human promyelocytic leukemia HL-60 cell line; conditions: Matsumoto et al 2003; cited from earlier work

Compound | cytotoxic effect on normal PBMC (MTT) (normal PBMC) | increase in the percentage of Annexin V positive ESKOL cells (in words) (ESKOL cells [1]) | % Annexin V+ cells (ESKOL cells [1]) [%] | viability of B-CLL cells (MTT) (B-CLL cells; 1 μg/ml) | viability of B-CLL cells (MTT) (B-CLL cells; 10 μg/ml) | cytotoxic effect on purified normal B-lymphocytes (MTT) (purified B-lymphocytes) | proliferation of ESKOL cells (ESKOL cells [2]) | DNA breakdown (enrichment in cytoplasmic nucleosomes) in ESKOL cells (ESKOL cells [3]) | antiplasmodial activity (Plasmodium) | cytotoxicity on A375 cell line [4] | pIC50 [5] | pIC50 [6] | histamine H1 receptor antagonism (histamine H1 receptor) | cell-cycle arrest and apoptosis in DLD-1 cells [7] | apoptosis induction in HL-60 cell line [8]
CC(C)=CCc1c(O)cc2oc3c(c(=O)c2c1O)C(CC=C(C)C)(CC=C(C)C)C(=O)C(O)=C3 [M4, allanxanthone C] | no toxic effect | to a lesser degree | 10.2 | no significant effect | marked reduction in the viability | no toxic effect | markedly and dose-dependently slowed down the proliferation | potent inducers of DNA breakdown | – | – | – | – | – | – | –
allanxanthone C [M4] | – | – | – | – | – | – | – | – | displays antiplasmodial activity | cytotoxicity | – | – | – | – | –
COc1ccc2oc3cc(O)c(CC=C(C)C)c(O)c3c(=O)c2c1 [M1, 1,3 dihydroxy-7-methoxy-2(3-methylbut-2enyl)xanthone] | no toxic effect | – | 5.6 | no significant effect | marked reduction in the viability | no toxic effect | markedly and dose-dependently slowed down the proliferation | – | – | – | – | – | – | – | –
CC(C)=CCC/C(C)=C/Cc1c(O)c(O)cc2oc3cc(O)c(CC=C(C)C)c(O)c3c(=O)c12 [M5, norcowanin] | – | to a lesser degree | 9.4 | no significant effect | marked reduction in the viability | – | markedly and dose-dependently slowed down the proliferation | potent inducers of DNA breakdown | antiplasmodial activity | weak cytotoxicity | – | – | – | – | –
C=CC(C)(C)c1c2c(c(O)c3c(=O)c4ccc(O)c(O)c4oc13)C=CC(C)(C)O2 [M6, Macluraxanthone] | somewhat sensitive | significant increase | 36.5 | no significant effect | marked reduction in the viability | somewhat sensitive | markedly and dose-dependently slowed down the proliferation | potent inducers of DNA breakdown | – | – | 5.37 | 5.54 | – | – | –
COc1c(O)cc2oc3cc(O)c(CC=C(C)C)c(O)c3c(=O)c2c1CC=C(C)C [M2, α-mangostin] | somewhat sensitive | significant increase | 15.0 | no significant effect | marked reduction in the viability | somewhat sensitive | markedly and dose-dependently slowed down the proliferation | potent inducers of DNA breakdown | displays antiplasmodial activity | – | – | – | histamine H1 receptor antagonist | induces cell-cycle arrest and apoptosis | induces apoptosis
